Assay results as given in US20190315711A1 (eXIthera Pharmaceuticals, Inc., priority 2016, published 2019).

Biological target: human Factor XIa (Homo sapiens, UniProt P03951)
Test: Factor XIa enzyme inhibition assay (dose response, fluorogenic AMC substrate)
Type: biochemical
Set-up: Enzyme: Factor XIa
Details: purified enzyme; substrate 50 μM, enzyme 0.25 nM; read-out: hFXIa IC50
Description: • Assay buffer: 20 mM Hepes, pH 7.4; 150 mM NaCl; 0.02% Tween 20 • Compounds: 10 mM stocks in DMSO • Substrate: 20 mM Glp-Pro-Arg-AMC, 25 mg/2.3 mL H2O (store at +4° C.) [Factor XIa, thrombin, and trypsin] • 20 mM Pro-Phe-Arg-AMC (Bachem I-1295), 25 mg/2.2 mL H2O or Boc-Leu-Gly-Arg-AMC (Bachem I-1105), 25 mg/2.07 mL H2O (store at +4° C.) [Factor Xa] • Enzyme: Factor XIa; 0.25 M in 50% glycerol (20 μg/mL) • Trypsin; 0.2 μM in 50% glycerol (4.8 μg/mL) • Thrombin; 0.2 μM in 50% glycerol (7.34 μg/mL) • Factor Xa; 0.2 μM in 50% glycerol (9.2 μg/mL)
• 1. Dilute the substrate to 100 μM in assay buffer (30 μL/6 mL). The enzyme is diluted to 0.5 nM just prior to use (12 L/6 mL for Factor XIa; 15 μL/6 mL for all of the rest.) • 2. Pipette 50 μL of substrate into each well of the 96 well (12×8) microtiter plate. (Column 1 is used as the 100% activity control and receives no compound, and Column 12 is the blank and receives no enzyme.) Add an additional 46 μL to column 2. • 3. Pipette 4 μL of each compound into the appropriate well in column 2 of the plate (unknowns assayed in triplicate, standard assayed in duplicate). The final compound concentration will be 1/50th of the stock. • 4. Serially two-fold dilute the compound by mixing the sample in column 2, removing 50 μL to the next well (column 3), mix and remove to column 4, etc. until column 11. After mixing column 11, remove 50 μL and discard. • 5. Pipette 50 μL of buffer into column 12. Initiate the reaction by adding 50 μL of enzyme solution to each well of columns 1-11 as rapidly as possible. • 6. Read the plate in a spectrophotometer (SpectraMax) at 30° C., wherein each well is measured every 60 s for 30 min. For Factor Xa assays, each well is measured every 1 min for a total of 60 min. • 7. For Factor XIa assays, the compounds are assayed, in duplicate, at 3 different starting concentrations, 20, 2, and 0.2 μM; 1:10, 1:100, and 1:1000 dilution of 10 mM stock or at 2, 0.2, and 0.02 μM; 1:100, 1:1000, and 1:10,000 dilution of 10 mM stock. Data for each concentration are combined for graphing and data fitting. • 8. Data can be used both for estimation of IC50 and for estimation of Kon.
Potential inhibitors of Factor XIa were evaluated using the following assay.
PyroGlu-Pro-Arg-7-methylaminocourin (AMC), available from CPC Scientific, Inc., is based on the substrate pyro-Glu-Pro-Arg-pNA (S-2366), available from Diapharma Group, Inc. (Columbus, Ohio), wherein the p-nitroanaline group is replaced with 7-methylaminocoumarin (AMC).
The final concentration of the substrate in the assay was 50 μM, and the final concentration of the enzyme was 0.25 nM. Inhibitors were tested by serial dilution over an appropriate range to yield a dose response curve for determination of the inhibitors' IC50 value. The assay mixture was read every minute for 30 minutes in order to generate progress curves. The plates were read in a Spectramax m5 Multimode Plate Reader (Molecular Devices LLC, Sunnyvale, Calif.). Dose response curves were fit to Equation 1 below in which A is the maximum inhibition, B is the minimum inhibition, C is the IC50, and D is the Hill coefficient.
Y=[(A−B)/(1+(X/C)^D)]+B (Equation 1)

Chain of human Factor XIa (P03951 388-625 limits assumed): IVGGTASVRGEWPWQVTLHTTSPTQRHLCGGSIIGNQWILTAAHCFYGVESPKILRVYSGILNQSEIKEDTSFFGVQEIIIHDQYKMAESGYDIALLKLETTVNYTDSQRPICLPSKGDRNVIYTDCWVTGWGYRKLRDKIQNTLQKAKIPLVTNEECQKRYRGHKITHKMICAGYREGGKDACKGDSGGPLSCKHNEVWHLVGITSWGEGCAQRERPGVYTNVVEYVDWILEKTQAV
Chain of human Factor XIa (P03951 19-387 partner limits assumed): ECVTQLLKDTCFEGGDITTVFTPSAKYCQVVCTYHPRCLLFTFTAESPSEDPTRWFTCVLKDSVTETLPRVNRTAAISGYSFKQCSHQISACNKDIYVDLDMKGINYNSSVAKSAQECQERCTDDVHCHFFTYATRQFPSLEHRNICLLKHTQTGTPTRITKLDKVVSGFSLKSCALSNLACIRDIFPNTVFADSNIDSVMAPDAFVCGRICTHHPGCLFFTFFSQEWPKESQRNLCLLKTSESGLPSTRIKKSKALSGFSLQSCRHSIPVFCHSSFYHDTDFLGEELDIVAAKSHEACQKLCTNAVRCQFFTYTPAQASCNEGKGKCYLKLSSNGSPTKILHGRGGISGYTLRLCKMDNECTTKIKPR

| SMILES | IC50 [nM] |
| --- | --- |
| Nc1cc(C[C@H]2C(=O)N(C(=O)N[C@@H](C3CCCCC3)C(F)(F)F)[C@@H]2C(=O)NC2CC2)ccn1 [Compound 1] | 10 to 100 |
| CCNC(=O)[C@@H]1[C@@H](Cc2ccnc(N)c2)C(=O)N1C(=O)N[C@@H](c1ccccc1)C(F)(F)F [Compound 2] | 10 to 100 |
| Cc1cccc(N(C)C(=O)[C@@H]2[C@@H](Cc3ccnc(N)c3)C(=O)N2C(=O)N[C@@H](C2CCCCC2)C(F)(F)F)c1 [Compound 14] | 10 to 100 |
| CN(C(=O)[C@@H]1[C@@H](Cc2ccnc(N)c2)C(=O)N1C(=O)N[C@@H](C1CCCCC1)C(F)(F)F)c1ccccn1 [Compound 16] | < 10 |
| CN(C(=O)[C@@H]1[C@@H](Cc2ccnc(N)c2)C(=O)N1C(=O)N[C@@H](C1CCCCC1)C(F)(F)F)c1ccncn1 [Compound 20] | < 10 |
| CC[C@@H](NC(=O)N1C(=O)[C@H](Cc2ccnc(N)c2)[C@H]1C(=O)N(C)c1ccccc1C)C1CCCCC1 [Compound 26] | 10 to 100 |
| CN(C(=O)[C@@H]1[C@@H](Cc2ccnc(N)c2)C(=O)N1C(=O)N[C@@H](C1CCCCC1)C(F)(F)F)c1cnccn1 [Compound 30] | < 10 |
| CCN(C(=O)[C@@H]1[C@@H](Cc2ccnc(N)c2)C(=O)N1C(=O)N[C@@H](C1CCCCC1)C(F)(F)F)c1ccncc1 [Compound 33] | < 10 |
| CCN(C(=O)[C@@H]1[C@@H](Cc2ccnc(N)c2)C(=O)N1C(=O)N[C@@H](C1CCCCC1)C(F)(F)F)c1ccnc(C)c1 [Compound 34] | < 10 |
| CN(C(=O)[C@@H]1[C@@H](Cc2ccnc(N)c2)C(=O)N1C(=O)NC1CCCc2ccccc21)c1ccccc1 (stereo partly shown) [Compound 41] | 100 to 1000 |
| CC[C@@H](NC(=O)N1C(=O)[C@H](Cc2ccnc(N)c2)[C@H]1C(=O)N(C)c1ccccc1)c1ccncc1 [Compound 43] | 100 to 1000 |
| CN(C(=O)[C@@H]1[C@@H](Cc2ccnc(N)c2)C(=O)N1C(=O)N[C@H](C1CCCCC1)C1CC1)c1ccccc1 [Compound 45] | < 10 |
| CC[C@@H](NC(=O)N1C(=O)[C@H](Cc2ccnc(N)c2)[C@H]1C(=O)N(C)c1ccccc1)c1ccc(OC(F)(F)F)cc1 [Compound 47] | 100 to 1000 |
| CC[C@@H](NC(=O)N1C(=O)[C@H](Cc2ccnc(N)c2)[C@H]1C(=O)N(C)c1ccccc1)c1ccc(F)c(F)c1 [Compound 48] | 100 to 1000 |
| CN(C(=O)[C@@H]1[C@@H](Cc2ccnc(N)c2)C(=O)N1C(=O)N[C@@H](C1CCCCC1)C1CC1)c1ncccn1 [Compound 53] | < 10 |
| Cc1cc(N(C)C(=O)[C@@H]2[C@@H](Cc3ccnc(N)c3)C(=O)N2C(=O)N[C@@H](C2CCCCC2)C2CC2)ccn1 [Compound 56] | < 10 |
| CN(C(=O)[C@@H]1[C@@H](Cc2ccnc(N)c2)C(=O)N1C(N)=O)c1ccccc1 [Compound 57] | 100 to 1000 |
| CN(C(=O)[C@@H]1[C@@H](Cc2ccnc(N)c2)C(=O)N1C(=O)N[C@@H](c1cccnc1)C1CC1)c1ccccc1 [Compound 58] | 10 to 100 |
| C[C@@H](NC(=O)N1C(=O)[C@H](Cc2ccnc(N)c2)[C@H]1C(=O)N(C)c1ccccc1)c1cccnc1 [Compound 60] | 10 to 100 |
| CC[C@@H](NC(=O)N1C(=O)[C@H](Cc2ccncc2)[C@H]1C(=O)N(C)c1ccccc1)C1CCCCC1 [Compound 62] | 100 to 1000 |
| CN(C(=O)[C@@H]1[C@@H](Cc2ccncc2)C(=O)N1C(=O)N[C@@H](C1CCCCC1)C1CC1)c1ccccc1 [Compound 63] | 100 to 1000 |
| CC[C@@H](NC(=O)N1C(=O)[C@H](Cc2ccncc2)[C@H]1C(=O)N(C)c1ccncc1)C1CCCCC1 [Compound 65] | 100 to 1000 |
| CC[C@@H](NC(=O)N1C(=O)[C@H](Cc2ccncc2)[C@H]1C(=O)N(C)c1ccccc1)c1cccnc1 [Compound 66] | 100 to 1000 |
| CN(C(=O)[C@@H]1[C@@H](Cc2ccnc(N)c2)C(=O)N1C(=O)N[C@@H](c1cccnc1)C(F)(F)F)c1ccccc1 [Compound 67] | 10 to 100 |
| CCC[C@@H](NC(=O)N1C(=O)[C@H](Cc2ccnc(N)c2)[C@H]1C(=O)N(C)c1ccccc1)c1cccnc1 [Compound 68] | 10 to 100 |
